One assay has as its target T1, CDK2/Cyclin A (Homo sapiens, UniProt P24941).
T1 construct: purchased Invitrogen PV6290
Description: Enzymatic assay for CDK2 (LANCE Ultra kinase assay, FRET based). The class given is biochemical. As to conditions: ATP at Km. Summed up: (§1)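 Compounds tested as 8 doses in 4-fold steps against CDK2/Cyclin A ([…]) or CDK5/p25 ([…]), with ATP at its Km and 68 nM ULight-MBP substrate. After 60 min at 23° C., EDTA plus Eu-labelled anti-phospho-MBP added; TR-FRET (615/665 nm) read after another 60 min.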
A general note: Time-resolved FRET reads energy transfer from a long-lived donor to a nearby acceptor.

The subject of a further assay is OVCAR-3. Description: OVCAR-3 viability assay (CellTiter-Glo, 72 hours). The note with it: Homo sapiens; OVCAR-3 cells. The class given is cell-based. As for the experimental part: Human […] cell line, MV4-11_(ATCC, Cat #CRL-9591), NSCLC (Non-small cell lung cancer) cell line H460 (ATCC, Cat #HTB-177), A2780 (ECACC, Cat #93112519) and OVCAR-3(ATCC, Cat #HTB-161) were obtained from ATCC. Cells were grown in RPMI-1640 media (Invitrogen, Cat #22400-089) supplemented with 10% FBS (Invitrogen, Cat #10099141) and 1% penicillin/streptomycin (Invitrogen, Cat #15070063) and cultured at 37° C., 5% CO2 in a humidified chamber. All cell lines were routinely tested for mycoplasma.
To effect of the CDK7 inhibitor to inhibit the growth of target cancer cells, viability assay were conducted a 72 hour time period. Briefly, the candidate cell line was plated in 96 well plate at the following density of cells respectively. 1×10^4 cells/well for MV4-11, 5×10^3 for H460 and OVCAR-3, and 1×10^3 for A2780. After 24 hours, the cells were treated with various concentrations of the compound (ranging from 0.0015 uM to 10 uM). DMSO solvent without compound served as a control and final DMSO concentration lest than 0.1%. After 72 hours of incubation at 37° C., 5% CO2 incubator, cells were analyzed for the viability using the CellTiter-Glo Luminescent Cell Viability Assay (Promega, Cat #G7570). All viability assays were performed in duplicate and Luminescence was read using an Envision (Perkin Elmer, USA). Data was analyzed using XLfit software.
On the technique in general: ATP-based viability assays read luminescence as a measure of living cells.

A further assay has as its system A2780. In words: A2780 viability assay (CellTiter-Glo, 72 hours). It is filed as cell-based. The note with it: Homo sapiens; A2780 cells. The procedure, abridged:
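RPMI-1640/10% FBS; plate cells (MV4-11 1×10^4, OVCAR-3 5×10^3, A2780 1×10^3 per well); 24 h later add compound 0.0015–10 uM; 72 h, 37° C; CellTiter-Glo luminescence, duplicate wells.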

Another assay has as its target T2, CDK7/Cyclin H/MNAT1 (Homo sapiens, UniProt P50613).
T2 construct: purchased Invitrogen PR6749B
Description: Enzymatic assay for CDK7 (LANCE Ultra kinase assay, FRET based). The class given is biochemical. The note with it: for IC50: ATP at Km. The procedure, abridged: (§2)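 Purified CDK–cyclin enzyme, ATP at Km; ULight peptide substrate; TR-FRET via Eu anti-phospho-Ab; inhibition scored.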

The target of a further assay is T3, CDK1/Cyclin B (Homo sapiens, UniProt P06493).
T3 construct: purchased Invitrogen PR4768C
T3 sequence (P06493 whole entry): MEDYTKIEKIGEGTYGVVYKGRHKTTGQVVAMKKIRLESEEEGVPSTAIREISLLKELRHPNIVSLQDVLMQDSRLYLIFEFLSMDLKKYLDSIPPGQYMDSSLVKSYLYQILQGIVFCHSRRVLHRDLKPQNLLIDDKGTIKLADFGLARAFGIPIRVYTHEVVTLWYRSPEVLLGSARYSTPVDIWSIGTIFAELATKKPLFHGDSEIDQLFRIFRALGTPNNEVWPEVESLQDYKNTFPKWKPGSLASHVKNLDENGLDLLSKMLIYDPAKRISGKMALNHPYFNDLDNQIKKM
T3 sequence (P14635 whole entry partner): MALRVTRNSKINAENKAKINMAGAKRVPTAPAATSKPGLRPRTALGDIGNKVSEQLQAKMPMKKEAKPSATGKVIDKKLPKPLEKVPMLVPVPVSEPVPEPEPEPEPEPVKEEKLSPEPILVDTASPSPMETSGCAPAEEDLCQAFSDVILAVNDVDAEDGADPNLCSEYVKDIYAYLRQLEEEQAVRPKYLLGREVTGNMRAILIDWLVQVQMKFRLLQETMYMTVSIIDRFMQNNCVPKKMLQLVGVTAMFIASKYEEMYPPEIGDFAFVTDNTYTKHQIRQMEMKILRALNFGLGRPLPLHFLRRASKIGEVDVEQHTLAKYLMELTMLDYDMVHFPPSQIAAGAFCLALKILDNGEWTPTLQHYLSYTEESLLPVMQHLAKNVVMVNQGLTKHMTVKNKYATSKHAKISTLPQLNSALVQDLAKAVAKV
In words: Enzymatic assay for CDK1 (LANCE Ultra kinase assay, FRET based). It is filed as biochemical. As to conditions: ATP at Km; read-out: CDK1 enzymatic activity IC50. The procedure, abridged:
as §2

For the next assay, the target named is T4, CDK5/p25 (Homo sapiens, UniProt Q00535).
T4 construct: purchased Invitrogen PR8543B
T4 sequence (Q00535 whole entry): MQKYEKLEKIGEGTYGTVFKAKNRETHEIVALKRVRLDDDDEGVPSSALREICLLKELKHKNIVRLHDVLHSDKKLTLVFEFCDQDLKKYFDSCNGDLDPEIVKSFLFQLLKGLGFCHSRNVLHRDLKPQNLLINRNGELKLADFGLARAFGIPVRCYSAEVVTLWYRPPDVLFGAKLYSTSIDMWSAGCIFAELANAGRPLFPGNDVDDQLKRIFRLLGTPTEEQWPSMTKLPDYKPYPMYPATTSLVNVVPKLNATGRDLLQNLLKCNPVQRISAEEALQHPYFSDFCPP
T4 sequence (Q15078 99-307 partner limits assumed): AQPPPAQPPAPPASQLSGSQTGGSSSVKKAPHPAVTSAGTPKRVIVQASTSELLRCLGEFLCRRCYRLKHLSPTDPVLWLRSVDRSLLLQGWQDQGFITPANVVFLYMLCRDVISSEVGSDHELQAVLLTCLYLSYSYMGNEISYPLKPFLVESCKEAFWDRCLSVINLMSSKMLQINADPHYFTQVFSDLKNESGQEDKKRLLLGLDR
Description: Enzymatic assay for CDK5 (LANCE Ultra kinase assay, FRET based). It is filed as biochemical. The note with it: ATP at Km. Summed up:
as §1

The term IC50 denotes the point on the concentration scale where inhibition reaches its midpoint.

T2 sequence (P50613 whole entry): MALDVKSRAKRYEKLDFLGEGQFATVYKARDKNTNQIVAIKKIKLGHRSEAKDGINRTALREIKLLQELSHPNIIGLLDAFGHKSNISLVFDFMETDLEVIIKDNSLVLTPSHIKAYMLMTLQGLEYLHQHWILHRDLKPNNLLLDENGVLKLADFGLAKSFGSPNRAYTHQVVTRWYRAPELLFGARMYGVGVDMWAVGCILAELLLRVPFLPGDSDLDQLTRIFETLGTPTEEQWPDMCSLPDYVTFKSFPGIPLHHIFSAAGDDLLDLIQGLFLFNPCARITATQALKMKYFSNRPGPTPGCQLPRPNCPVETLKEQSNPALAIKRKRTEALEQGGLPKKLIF
T2 sequence (P51946 whole entry partner): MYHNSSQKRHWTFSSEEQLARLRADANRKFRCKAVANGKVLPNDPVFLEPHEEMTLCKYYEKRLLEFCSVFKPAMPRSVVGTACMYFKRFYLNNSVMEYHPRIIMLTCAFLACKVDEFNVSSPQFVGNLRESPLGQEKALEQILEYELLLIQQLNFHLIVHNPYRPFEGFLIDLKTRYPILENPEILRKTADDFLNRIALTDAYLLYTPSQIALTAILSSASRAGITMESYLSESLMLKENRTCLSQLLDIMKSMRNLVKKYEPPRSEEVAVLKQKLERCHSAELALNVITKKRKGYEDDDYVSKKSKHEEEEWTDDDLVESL
T2 sequence (P51948 whole entry partner): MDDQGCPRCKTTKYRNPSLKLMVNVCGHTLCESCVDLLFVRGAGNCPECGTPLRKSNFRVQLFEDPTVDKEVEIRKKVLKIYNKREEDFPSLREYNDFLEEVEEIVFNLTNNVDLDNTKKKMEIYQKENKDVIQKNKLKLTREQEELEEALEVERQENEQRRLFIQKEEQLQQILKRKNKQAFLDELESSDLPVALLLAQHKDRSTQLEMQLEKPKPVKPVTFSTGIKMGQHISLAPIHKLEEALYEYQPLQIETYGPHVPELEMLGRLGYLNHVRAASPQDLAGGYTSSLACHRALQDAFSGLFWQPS

`C=C(F)C(=O)Nc1ccc2c(-c3ccccc3CNc3nc(O[C@@H]4CCCNC4)nc4c(C(C)C)cnn34)nccc2c1` [Compound 137]: the IC50 is greater than 1000 nM against CDK2/Cyclin A; less than 1000 nM with OVCAR-3; less than 1000 nM in the assay on A2780; less than 100 nM on CDK7/Cyclin H/MNAT1; greater than 1000 nM on CDK1/Cyclin B; greater than 1000 nM at CDK5/p25. In addition, the “CDK1/CDK7: Selectivity of CDK7 inhibition over CDK1 inhibition” value on CDK7/Cyclin H/MNAT1 was “A (A indicates [fold] > 500)”. The “CDK2/CDK7: Selectivity of CDK7 inhibition over CDK2 inhibition” value on CDK7/Cyclin H/MNAT1 was “A (A indicates [fold] > 500)”. The “CDK5/CDK7: Selectivity of CDK7 inhibition over CDK5 inhibition” value at CDK7/Cyclin H/MNAT1 is “A (A indicates [fold] > 500)”.
Consider `CC(C)c1cnn2c(NCc3ccccc3-c3nccc4cc(NC(=O)/C=C/CN(C)C)ccc34)nc(N3CC4COCC4C3)nc12` (stereo not drawn) [Compound 104], for which the IC50 at CDK2/Cyclin A is greater than 1000 nM; in the assay with OVCAR-3 it was less than 1000 nM; in the assay on A2780 it was less than 1000 nM; at CDK7/Cyclin H/MNAT1, 100 to 1000 nM; on CDK1/Cyclin B it was greater than 1000 nM; at CDK5/p25, greater than 1000 nM. Also, on CDK7/Cyclin H/MNAT1, the “CDK1/CDK7: Selectivity of CDK7 inhibition over CDK1 inhibition” value was “B (B indicates 50 < [fold] ≤ 500)”. In addition, on CDK7/Cyclin H/MNAT1, the “CDK2/CDK7: Selectivity of CDK7 inhibition over CDK2 inhibition” value was “B (B indicates 50 < [fold] ≤ 500)”. Besides, the “CDK5/CDK7: Selectivity of CDK7 inhibition over CDK5 inhibition” value on CDK7/Cyclin H/MNAT1 is “B (B indicates 50 < [fold] ≤ 500)”.
Turning to `C=C(F)C(=O)Nc1ccc2c(-c3ccccc3CNc3nc(N[C@@H]4CCCNC4)nc4c(C(C)C)cnn34)nccc2c1` [Compound 166], the IC50 at CDK2/Cyclin A is greater than 1000 nM; in the assay with OVCAR-3 it was greater than 10000 nM; in the assay on A2780, less than 1000 nM; on CDK7/Cyclin H/MNAT1, less than 100 nM; at CDK1/Cyclin B it was greater than 1000 nM; on CDK5/p25, greater than 1000 nM. On CDK7/Cyclin H/MNAT1, the “CDK1/CDK7: Selectivity of CDK7 inhibition over CDK1 inhibition” value is “A (A indicates [fold] > 500)”. For the same compound, the “CDK2/CDK7: Selectivity of CDK7 inhibition over CDK2 inhibition” value at CDK7/Cyclin H/MNAT1 is “A (A indicates [fold] > 500)”. Also, the “CDK5/CDK7: Selectivity of CDK7 inhibition over CDK5 inhibition” value at CDK7/Cyclin H/MNAT1 is “A (A indicates [fold] > 500)”.
Turning to `C=C(F)C(=O)Nc1ccc2c(-c3ccccc3CNc3nc(NC4CCCNC4)nc4c(C(C)C)cnn34)nccc2c1` (stereo not drawn) [Compound 172], the half-inhibitory concentration (IC50) against CDK2/Cyclin A was greater than 1000 nM; in the assay with OVCAR-3, less than 1000 nM; in the assay on A2780, less than 1000 nM; at CDK7/Cyclin H/MNAT1 it was less than 100 nM; at CDK1/Cyclin B, greater than 1000 nM; at CDK5/p25 it was greater than 1000 nM. Moreover, the “CDK1/CDK7: Selectivity of CDK7 inhibition over CDK1 inhibition” value at CDK7/Cyclin H/MNAT1 is “A (A indicates [fold] > 500)”. Moreover, the “CDK2/CDK7: Selectivity of CDK7 inhibition over CDK2 inhibition” value on CDK7/Cyclin H/MNAT1 is “A (A indicates [fold] > 500)”. In addition, the “CDK5/CDK7: Selectivity of CDK7 inhibition over CDK5 inhibition” value at CDK7/Cyclin H/MNAT1 is “A (A indicates [fold] > 500)”.
As to `CC(C)c1cnn2c(NCc3ccccc3-c3nccc4cc(NC(=O)/C=C/CN(C)C)ccc34)nc(N[C@@H]3CC[C@@H](C)NC3)nc12` [Compound 154], the IC50 at CDK2/Cyclin A is greater than 1000 nM; in the assay with OVCAR-3, 1000 to 10000 nM; in the assay with A2780 it was less than 1000 nM; against CDK7/Cyclin H/MNAT1 it was less than 100 nM; on CDK1/Cyclin B, greater than 1000 nM; on CDK5/p25, greater than 1000 nM. Moreover, the “CDK1/CDK7: Selectivity of CDK7 inhibition over CDK1 inhibition” value at CDK7/Cyclin H/MNAT1 was “A (A indicates [fold] > 500)”. Further, on CDK7/Cyclin H/MNAT1, the “CDK2/CDK7: Selectivity of CDK7 inhibition over CDK2 inhibition” value was “A (A indicates [fold] > 500)”. Also, the “CDK5/CDK7: Selectivity of CDK7 inhibition over CDK5 inhibition” value at CDK7/Cyclin H/MNAT1 was “A (A indicates [fold] > 500)”.
As for `C=C(F)C(=O)Nc1cccc2ccc(-c3cccc(C)c3CNc3nc(N4CCC(OC)CC4)nc4c(C(C)C)cnn34)nc12` [Compound 93], the IC50 against CDK2/Cyclin A is greater than 1000 nM; in the assay on OVCAR-3, 1000 to 10000 nM; with A2780 it was less than 1000 nM; at CDK7/Cyclin H/MNAT1, greater than 1000 nM; at CDK1/Cyclin B, greater than 1000 nM; against CDK5/p25 it was greater than 1000 nM. Further, the “CDK1/CDK7: Selectivity of CDK7 inhibition over CDK1 inhibition” value at CDK7/Cyclin H/MNAT1 is “C (C indicates [fold] ≤ 50)”. For the same compound, the “CDK2/CDK7: Selectivity of CDK7 inhibition over CDK2 inhibition” value at CDK7/Cyclin H/MNAT1 is “C (C indicates [fold] ≤ 50)”. The “CDK5/CDK7: Selectivity of CDK7 inhibition over CDK5 inhibition” value on CDK7/Cyclin H/MNAT1 is “C (C indicates [fold] ≤ 50)”.

For the origin of these results see patent publication US12606561B2, “Substituted pyrazolo[1,5-a][1,3,5]triazines as CDK inhibitors” (QURIENT CO., LTD., priority 2018, dated 2026).
